Measured values: the METLIN SMRT retention time set (Domingo-Almenara et al. 2019)

Assay: gradient 5% acetonitrile 3 min, to 50% in 2 min, to 85% in 15 min, held 3 min, 100 µL/min
Conditions: column: Zorbax Extend-C18 2.1 x 50 mm; eluents: water / acetonitrile, 0.1% formic acid
Method in brief: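 Over 3 months, pure standards in mixtures of ~100 molecules were run by HPLC coupled to a quadrupole time-of-flight mass spectrometer in positive and negative ionization mode. The column was a Zorbax Extend-C18 (2.1 × 50 mm, 1.8 μm) at 100 μL/min, eluted with water and acetonitrile each holding 0.1% formic acid, with 40 μL dead and 900 μL dwell volumes. Retention time was determined from adduct peaks chosen by software and checked manually.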

| Structure (SMILES) | RP-LC retention time [s] |
| --- | --- |
| CN1C(=O)N(C)C2(CCN(C(=O)Cc3ccc(Cl)cc3)CC2)C1=O | 686 |
| Cc1cc(C)nc(SCC(=O)Nc2nc(-c3ccccc3)cs2)n1 | 1020 |
| O=C(NCC1CCCO1)c1nnn(-c2ccc(F)cc2)c1-c1ccncc1 (configuration not stated) | 679 |
| O=c1n(Cc2ccccc2F)nc2c(S(=O)(=O)N3CCCCCC3)cccn12 | 938 |
| COCCCNc1c(-c2cccc(F)c2)nc2sc(C(N)=O)c(C)n12 | 741 |
| Cn1nnnc1NCc1ccc(-c2cccc(Cl)c2)o1 | 826 |
| C(=C\CSc1ccccn1)/CSc1ccccn1 | 955 |
| O=C(Cn1nc2n(c1=O)CCCCC2)NCc1ccccc1Br | 705 |
| O=S(=O)(Oc1ccc(Cl)cc1)c1cccc2cccnc12 | 1050 |
| COc1ccc(-c2csc(NC(=O)c3ccc([N+](=O)[O-])cc3)n2)cc1 | 1070 |
| O=C(Nc1ccc2c(c1)OCO2)C(=O)c1c[nH]c2ccccc12 | 890 |
| O=C(c1cccc(Br)c1)N1CCN(c2cc(-c3ccc(Cl)cc3)[nH]n2)CC1 | 958 |
| CCn1c(=O)c(N2CCC(C(=O)NCCc3c[nH]c4ccc(C)cc34)CC2)nc2ccccc21 | 966 |
| Cc1oc(-c2[nH]ncc2C(=O)N2CCCC2)cc1S(=O)(=O)Nc1cccc(Cl)c1 | 741 |
| CN1C2CCC1CC(OC(c1ccccc1)c1ccc(Cl)cc1)C2 (configuration not stated) | 862 |
| CCOc1ccc(-c2noc(N3CCC(C(=O)N4CCN(CC)CC4)CC3)n2)cc1OC | 630 |
| Cc1ccc(C(=O)Nc2cnn(-c3ncncc3N3CCC(C)CC3)c2)s1 | 909 |
| O=C(Nc1ccc(C2(C(=O)NCc3cccc(Cl)c3)CCC2)cc1)C1CC1 | 891 |

Next, values leading:

| RP-LC retention time [s] | Structure (SMILES) |
| --- | --- |
| 1070 | Cc1ccc(C(=O)Nc2ccc(N3CCN(c4ccccc4)C3=O)nc2)cc1C |
| 553 | O=C(NCc1cccnc1)C1CCN(c2cc(N3CCSCC3)ncn2)CC1 |
| 778 | O=C(NC1CCCCC1)C1CCCN(c2nnc3ccc(Cl)cn23)C1 (configuration not stated) |
| 996 | N#Cc1ccc(-c2nc(C3CC(=O)N(c4ccc(Cl)cc4)C3)no2)cc1 (configuration not stated) |
| 849 | O=C(Cn1nc2c(Oc3cccc(F)c3)nccn2c1=O)Nc1ccc(F)cc1 |
| 710 | Clc1ccc(-c2nnc(-c3cccnc3N3CCN(c4ccccn4)CC3)o2)cc1 |
| 741 | COc1ccccc1NC(=O)C1CCc2nc(N3CCOCC3)ncc2C1 (configuration not stated) |
| 672 | Cc1cc(C)c(CN2CCC(N3CCN(Cc4nc(C)no4)C3=O)C2)c(C)c1 (configuration not stated) |
| 799 | O=C(Nc1ccc(S(=O)(=O)Nc2nccs2)cc1)c1sc2ccccc2c1Cl |
| 738 | Cc1ccc(N2CC(c3nc(-c4ccc5c(c4)ncn5CCC(=O)N4CCCC4)no3)CC2=O)cc1C (configuration not stated) |
| 652 | CCOc1ccc(S(=O)(=O)NC2CC(=O)N(C3CC3)C2)cc1 (configuration not stated) |
| 930 | CSc1ccc(-c2nc3cnccn3c2Nc2ccccc2)cc1 |
| 642 | COc1ccc(-c2nnc(-c3ccc(-n4ccnc4)nc3)o2)cc1F |
| 792 | CCCCCN1C(=O)C2(NCCc3c2[nH]c2ccc(C)cc32)c2ccccc21 (configuration not stated) |
| 680 | CCC1CCCCN1C(=O)c1cnc2nc(C)ccc2c1Nc1ccc(F)c(C)c1 (configuration not stated) |
| 804 | COc1ccccc1NC(=O)Cn1c(=O)c2cc(-c3ccco3)nn2c2ncccc21 |
| 1060 | CCCn1c(=O)c2cc(C(=O)NCCCc3ccccc3)nn2c2ccccc21 |
| 646 | CCNc1cc(N2CCC(CCC(=O)NCc3ccccc3F)CC2)ncn1 |
| 715 | COc1ccc(-c2nc3cc(C)ccn3c2NC(=O)c2cc(Br)ccc2Cl)cc1 |
